This note sets out measurements from ChEMBL document CHEMBL5728268, “Substituted tricyclic heterocyclic compounds and use thereof” (2021).

Structures are written as SMILES.

For this experiment, the target named is Tyrosine-protein kinase JAK2 (Homo sapiens, UniProt O60674). The experiment is described as follows: JAK2 Assay: JAK2 (5-20 mU diluted in 50 mM Tris pH 7.5, 0.1 mM EGTA, 0.05% 0-mercaptoethanol, 1 mg/ml BSA) is assayed against PDKtide ([…]-[…]) in a final volume of 25.5 μl containing 50 mM Tris pH 7.5, 0.1 mM EGTA, 0.05% 0-mercaptoethanol, 100 μM substrate peptide, 10 mM magnesium acetate and 0.005 mM [33P-γ-ATP] (50-1000 cpm/pmole) and incubated for 30 min at room temperature Assays are stopped by addition of 5 μl of 0.5 M (3%) orthophosphoric acid and then harvested onto P81 Unifilter plates with a wash buffer of 50 mM orthophosphoric acid.
Tyrosine-protein kinase JAK2, sequence (O60674 whole entry): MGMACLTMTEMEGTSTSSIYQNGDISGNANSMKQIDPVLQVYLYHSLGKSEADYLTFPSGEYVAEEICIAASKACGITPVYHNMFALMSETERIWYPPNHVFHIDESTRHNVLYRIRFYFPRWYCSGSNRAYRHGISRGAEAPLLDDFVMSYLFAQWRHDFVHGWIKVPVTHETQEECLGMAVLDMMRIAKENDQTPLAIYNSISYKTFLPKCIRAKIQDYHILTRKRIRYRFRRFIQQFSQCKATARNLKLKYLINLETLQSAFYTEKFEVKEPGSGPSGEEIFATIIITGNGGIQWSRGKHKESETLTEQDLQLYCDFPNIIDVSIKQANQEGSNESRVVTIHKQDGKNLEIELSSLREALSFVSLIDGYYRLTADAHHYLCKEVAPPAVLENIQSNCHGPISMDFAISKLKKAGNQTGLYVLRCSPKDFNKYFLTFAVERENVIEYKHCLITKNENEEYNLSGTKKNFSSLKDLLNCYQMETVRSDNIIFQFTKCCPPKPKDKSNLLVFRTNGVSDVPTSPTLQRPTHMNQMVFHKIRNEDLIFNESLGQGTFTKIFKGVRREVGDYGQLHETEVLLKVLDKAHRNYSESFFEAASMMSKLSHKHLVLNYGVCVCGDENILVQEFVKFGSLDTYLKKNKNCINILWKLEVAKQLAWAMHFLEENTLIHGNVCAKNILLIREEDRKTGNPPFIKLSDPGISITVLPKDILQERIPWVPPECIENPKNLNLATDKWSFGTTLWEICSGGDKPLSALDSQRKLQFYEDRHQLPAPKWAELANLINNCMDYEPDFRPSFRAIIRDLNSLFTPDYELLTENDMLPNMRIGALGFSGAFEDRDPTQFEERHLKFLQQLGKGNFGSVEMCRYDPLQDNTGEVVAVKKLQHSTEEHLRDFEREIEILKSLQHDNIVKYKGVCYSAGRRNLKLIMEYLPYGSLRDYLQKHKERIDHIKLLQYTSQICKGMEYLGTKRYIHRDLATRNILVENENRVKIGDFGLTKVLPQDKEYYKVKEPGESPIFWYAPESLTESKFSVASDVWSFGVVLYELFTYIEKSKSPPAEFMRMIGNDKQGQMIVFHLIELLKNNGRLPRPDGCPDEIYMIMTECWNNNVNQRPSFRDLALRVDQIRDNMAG
With `CC(C)n1ncc2c1CN(C1CCOCC1)c1nccc3[nH]nc-2c13`, it took 2.1 µM to reach half-maximal inhibition (IC50).
As for `CCn1ncc2c1CN(C1CCOCC1)c1nccc3[nH]nc-2c13`, the figure is 1.5 µM; as for `CCn1ncc2c1CN(C1CCN(C(C)C)CC1)c1nccc3[nH]nc-2c13`, 5.4 µM; as for `Cn1ncc2c1CN(C1CCOCC1)c1nccc3[nH]nc-2c13`, 0.92 µM.
On to `CCc1cc2c(cn1)CN(C1CCOCC1)c1nccc3[nH]nc-2c13`, for which the IC50 – broadly, the concentration that gives 50% inhibition – is 1.7 µM. Compared with the last compound, the IC50 is about 1.8-fold higher.
As for `CC(C)N1CCC(N2Cc3c(cnn3C)-c3n[nH]c4ccnc2c34)CC1`, the figure is 4.5 µM; as for `c1cc2[nH]nc3c2c(n1)N(C1CCCC1)CCC3`, 6.6 µM.
With `Fc1ccc2c(c1)-c1n[nH]c3ccnc(c13)N(C1CCOCC1)C2`, the half-maximal inhibitory concentration (IC50) came out at 0.9 µM.
Then `Cc1cc2c(cn1)CN(C1CCOCC1)c1nccc3[nH]nc-2c13`, with 0.89 µM.
